In patent publication US20240409536A1, “COMPOUNDS AND METHODS FOR MODULATING SPLICING” (REMIX THERAPEUTICS INC., priority 2021, published 2024):

Experiments:
[1] = tested on: HiBiT-tagged MYB protein; experiment: HiBiT protein abundance assay, MYB (K562 HiBiT knock-in cells); assay type: cell-based, human; settings: 24 hours
In short: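 K562 cells with endogenous HiBiT knock-in tag, 10-point 3-fold dilutions (top 10 μM final, ≤0.25% DMSO), 24 h at 37 °C. Lytic Nano-Glo HiBiT luminescence, normalized to DMSO and unmodified K562 baselines; IC50 is concentration giving 50% protein abundance from four-parameter fit.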

[2] = tested on: Target C mRNA; experiment: Gene panel canonical junction qPCR assay, Target C CJ mRNA decrease; assay type: cell-based; settings: Homo sapiens, canonical junction qPCR, read-out: Target C IC50 (decrease in CJ mRNA levels)
In short: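 A673 or K562 cells treated with compound; canonical exon-exon junction mRNA quantified by cDNA synthesis and RT-qPCR with junction-spanning primer/probe, normalized to GAPDH, GUSB or PPIA and DMSO (2^(−ΔΔCt)). Percent response from set ΔCt assay windows fitted to 4-parameter logistic; IC50 for CJ decrease.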

Row | Compound | IC50 [1] [nM] | IC50 [2] [nM]
1 | Cc1cn2cc(NC(=O)c3ccc(N4CC(C)NC(C)C4)c4nc(C)c(C)nc34)cc(F)c2n1 (centres unmarked) [Compound 257] | 1000 to 10000 | 1000 to 10000
2 | Cc1cn2cc(NC(=O)c3ccc(N4C[C@@H](C)N[C@@H](C5CC5)C4)c4nccnc34)cc(F)c2n1 [Compound 266, 8-((3S,5R)-3-cyclopropyl-5-methylpiperazin-1-yl)-N-(8-fluoro-2-methylimidazo[1,2-a]pyridin-6-yl)quinoxaline-5-carboxamide] | < 100 | > 10000
3 | C[C@@H]1CN(c2ccc(C(=O)Nc3ccc4nc(N(C)C)oc4c3)c3nccnc23)C[C@H](C)N1 [Compound 290] | > 10000 | > 10000
4 | Cc1cn2cc(NC(=O)c3ccc(N4C[C@H](C)N[C@@H](C)C4)c4nccnc34)cc(F)c2n1 [Compound 313] | < 100 | 1000 to 10000
5 | Cc1cn2cc(NC(=O)c3ccc(N4C[C@@H](C)N[C@@H](C)C4)c4nccnc34)cc(Cl)c2n1 [Compound 304] | < 100 | > 10000
6 | Cc1cn2cc(NC(=O)c3ccc(N4C[C@@H](C)N(O)[C@@H](C)C4)c4nccnc34)cc(F)c2n1 [Compound 355] | 100 to 1000 | > 10000
7 | Cc1cn2cc(NC(=O)c3ccc(N4CCN(CCO)C5(CC5)C4)c4nccnc34)cc(F)c2n1 [Compound 369] | 100 to 1000 | 1000 to 10000
8 | Cc1ccc2cc(NC(=O)c3ccc(N4C[C@@H](C)N[C@@H](C)C4)c4nccnc34)cc(F)c2n1 [Compound 353] | > 10000 | > 10000
9 | Cc1cn2cc(NC(=O)c3ccc(N4CCN(C)C5(CC5)C4)c4nccnc34)cc(F)c2n1 [Compound 364] | 100 to 1000 | 1000 to 10000
10 | COc1nc(NC(=O)c2ccc(N3C[C@@H](C)N[C@@H](C)C3)c3nccnc23)nc2cn(C)nc12 [Compound 287] | 1000 to 10000 | > 10000
11 | Cc1cn2cc(NC(=O)c3ccc(N4C[C@@H](C)N[C@@H](C)C4)c4nccnc34)nc(C)c2n1 [Compound 288] | < 100 | 1000 to 10000
12 | COc1cnc2c(N3CC[C@@H](N(C)C)C3)ccc(C(=O)Nc3cc(F)c4nc(C)cn4c3)c2n1 [Compound 244, 8-[(3R)-3-(dimethylamino)pyrrolidin-1-yl]-N-{8-fluoro-2-methylimidazo[1,2-a]pyridin-6-yl}-3-methoxyquinoxaline-5-carboxamide] | < 100 | 100 to 1000
13 | C[C@@H]1CN(c2ccc(C(=O)Nc3cc(F)c4cnccc4c3)c3nccnc23)C[C@H](C)N1 [Compound 343] | 1000 to 10000 | 1000 to 10000
14 | Cc1cn2cc(NC(=O)c3ccc(N4C5CNCC54)c4nccnc34)cc(F)c2n1 (centres unmarked) [Compound 262, 8-{3,6-diazabicyclo[3.1.0]hexan-6-yl}-N-{8-fluoro-2-methylimidazo[1,2-a]pyridin-6-yl}quinoxaline-5-carboxamide] | 100 to 1000 | 100 to 1000
15 | C[C@@H]1CN(c2ccc(C(=O)Nc3cc(F)c4nc(O)cn4c3)c3nccnc23)C[C@H](C)N1 [Compound 360] | > 10000 | > 10000
16 | Cn1cc2c(F)cc(NC(=O)c3ccc(N4CCNCC4)c4ccnnc34)cc2n1 [Compound 116] | > 10000 | > 10000
17 | Cc1cn2cc(NC(=O)c3ccc([C@@]45CCNCC4C5)c4nccnc34)cc(F)c2n1 (stereo in doubt) [Compound 248, 8-{3-azabicyclo[4.1.0]heptan-6-yl}-N-{8-fluoro-2-methylimidazo[1,2-a]pyridin-6-yl}quinoxaline-5-carboxamide 2,2,2-trifluoroacetate] | 100 to 1000 | 1000 to 10000
18 | Cc1cn2cc(NC(=O)c3ccc(N4CCN[C@@H](C5CC5)C4)c4nccnc34)cc(F)c2n1 [Compound 252, 8-[(3S)-3-cyclopropylpiperazin-1-yl]-N-{8-fluoro-2-methylimidazo[1,2-a]pyridin-6-yl}quinoxaline-5-carboxamide] | 100 to 1000 | > 10000
19 | COc1ccc2c(N3C[C@@H](C)N[C@@H](C)C3)ccc(C(=O)Nc3cc(F)c4nc(C)cn4c3)c2n1 [Compound 268, 5-[(3R,5S)-3,5-dimethylpiperazin-1-yl]-N-{8-fluoro-2-methylimidazo[1,2-a]pyridin-6-yl}-2-methoxyquinoline-8-carboxamide] | < 100 | 1000 to 10000
20 | Cc1cn2cc(NC(=O)c3ccc(N4C[C@@H](C)N[C@@H](C)C4)c4nccnc34)cc(C#N)c2n1 [Compound 294] | 100 to 1000 | > 10000
21 | COc1ncc2c(N3C[C@@H](C)N[C@@H](C)C3)ccc(C(=O)Nc3cc(F)c4nc(C)cn4c3)c2n1 [Compound 300] | < 100 | 100 to 1000
22 | COc1nc2ccc(NC(=O)c3ccc(N4C[C@@H](C)N[C@@H](C)C4)c4nccnc34)cc2o1 [Compound 292] | 1000 to 10000 | > 10000
23 | Cc1c(O)c(NC(=O)c2ccc(N3C[C@@H](C)N[C@@H](C)C3)c3nccnc23)cc2cn(C)nc12 [Compound 310] | 1000 to 10000 | > 10000
24 | Cc1cn2nc(NC(=O)c3ccc(C4CCNCC4)c4ccnnc34)cc(C)c2n1 [Compound 113] | 1000 to 10000 | 1000 to 10000
25 | Cc1cn2cc(NC(=O)c3ccc(N4C[C@@H](C)N[C@@H](C)C4)c4nccnc34)nc(Cl)c2n1 [Compound 279] | < 100 | > 10000

Next, values leading:

Row | IC50 [1] [nM] | IC50 [2] [nM] | Compound
26 | < 100 | 1000 to 10000 | Cc1cn2cc(NC(=O)c3ccc(N4CCC(NC5CC5)CC4)c4ccnnc34)cc(F)c2n1 [Compound 259, 5-[4-(cyclopropylamino)piperidin-1-yl]-N-{8-fluoro-2-methylimidazo[1,2-a]pyridin-6-yl} cinnoline-8-carboxamide]
27 | < 100 | 1000 to 10000 | CN[C@H]1CCN(c2ccc(C(=O)Nc3cc(F)c4nc(C)cn4c3)c3nnccc23)C1 [Compound 239, (S)—N-(8-fluoro-2-methylimidazo[1,2-a]pyridin-6-yl)-5-(3-(methylamino)pyrrolidin-1-yl)cinnoline-8-carboxamide]
28 | < 100 | 100 to 1000 | Cc1cn2cc(NC(=O)c3ccc(N4CCC(NC5CC5)CC4)c4nccnc34)cc(F)c2n1 [Compound 258, 8-(4-(cyclopropylamino)piperidin-1-yl)-N-(8-fluoro-2-methylimidazo[1,2-a]pyridin-6-yl)quinoxaline-5-carboxamide]
29 | < 100 | 1000 to 10000 | CNC1CCN(c2ccc(C(=O)Nc3cc(F)c4nc(C)cn4c3)c3nc(OCCOC)ccc23)C1 (centres unmarked) [Compound 234]
30 | < 100 | > 10000 | Cc1cn2cc(NC(=O)c3ccc(N4CCN[C@H](C5CC5)C4)c4nccnc34)cc(F)c2n1 [Compound 253, 8-[(3R)-3-cyclopropylpiperazin-1-yl]-N-{8-fluoro-2-methylimidazo[1,2-a]pyridin-6-yl}quinoxaline-5-carboxamide]
31 | 100 to 1000 | 1000 to 10000 | Cc1cn2cc(NC(=O)c3ccc(N4CCNCC4)c4nncnc34)cc(F)c2n1 [Compound 345]
32 | 100 to 1000 | > 10000 | Cc1cn2cc(NC(=O)c3ccc(N4CCN[C@@H](C(C)C)C4)c4nccnc34)cc(F)c2n1 [Compound 250, N-{8-fluoro-2-methylimidazo[1,2-a]pyridin-6-yl}-8-[(3S)-3-isopropylpiperazin-1-yl]quinoxaline-5-carboxamide]
33 | 100 to 1000 | 1000 to 10000 | Cc1cn2cc(NC(=O)c3ccc(N4CCNC5(CC5)C4)c4cccnc34)cc(F)c2n1 [Compound 341]
34 | 1000 to 10000 | > 10000 | CNc1nc(NC(=O)c2ccc(N3C[C@@H](C)N[C@@H](C)C3)c3nccnc23)cn2cc(C)nc12 [Compound 308]
35 | < 100 | 1000 to 10000 | Cc1cn2cc(NC(=O)c3c(F)cc(N4C[C@@H](C)N[C@@H](C)C4)c4nccnc34)cc(F)c2n1 [Compound 261, cis-8-[(3R,5S)-3,5-dimethylpiperazin-1-yl]-6-fluoro-N-{8-fluoro-2-methylimidazo[1,2-a]pyridin-6-yl}quinoxaline-5-carboxamide]
36 | 1000 to 10000 | > 10000 | Cc1cn2cc(NC(=O)c3ccc(N4CCC(N)(CF)CC4)c4nccnc34)cc(F)c2n1 [Compound 356]
37 | 100 to 1000 | 1000 to 10000 | CCN1CCN(c2ccc(C(=O)Nc3cc(F)c4nc(C)cn4c3)c3nccnc23)CC12CC2 [Compound 365]
38 | < 100 | 1000 to 10000 | CN[C@@H]1CCN(c2ccc(C(=O)Nc3cc(F)c4nc(C)cn4c3)c3nnccc23)C1 [Compound 238, (R)—N-(8-fluoro-2-methylimidazo[1,2-a]pyridin-6-yl)-5-(3-(methylamino)pyrrolidin-1-yl)cinnoline-8-carboxamide]
39 | > 10000 | > 10000 | Cc1cn2cc(NC(=O)c3ccc(N4C[C@@H](C)N[C@@H](C)C4)c4ncccc34)cc(F)c2n1 [Compound 358]
40 | 100 to 1000 | > 10000 | Cc1cn2cc(NC(=O)c3ccc(N4C[C@@H](C)N[C@@H](C)C4)c4nccnc34)nc2c(C)n1 [Compound 359]
41 | 100 to 1000 | 1000 to 10000 | Cc1cn2cc(NC(=O)c3ccc(N4CCNCC4)c4ccnnc34)c(C)cc2n1 [Compound 119]
42 | < 100 | 1000 to 10000 | COc1nc2c(N3C[C@@H](C)N[C@@H](C)C3)ccc(C(=O)Nc3cc(F)c4nc(C)cn4c3)c2nc1C [Compound 260, 8-((3R,5S)-3,5-dimethylpiperazin-1-yl)-N-(8-fluoro-2-methylimidazo[1,2-a]pyridin-6-yl)-2-methoxy-3-methylquinoxaline-5-carboxamide; 2,2,2-trifluoroacetate]
43 | < 100 | 100 to 1000 | Cc1nc2c(F)cc(NC(=O)c3ccc(N4CCNCC4)c4ccnnc34)cc2s1 [Compound 118]
